Counter-ions that a name gives are not always drawn.
What was measured:
[1] = test system: patients with a solid tumour; assay: Phase I study, toxicity (CTC criteria) of GI147211 30 min i.v. infusion daily x 5 every 3 weeks; assay type: in vivo, human
Description: British Journal of Cancer (1996) 73, 744-750 O (C? 1996 Stockton Press All rights reserved 0007-0920/96 $12.00 Phase I and pharmacological study of the new topoisomerase I inhibitor G1147211, using a daily x 5 intravenous administration CJH Gerrits', GJ Creemers', JHM Schellens', P Wissel2, AS Th Planting', R Kunka2, K Selinger2, M de Boer-Dennert', Y Marijnen3, M Harteveld' and J Verweijl 'Department of Medical Oncology, Rotterdam Cancer Institute, Rotterdam, The Netherlands; 2Glaxo Wellcome Inc, Department of Clinical Pharmacology, NC, USA; 3Glaxo Wellcome Inc, Department of Clinical Research, Zeist, The Netherlands. Summary Topoisomerase I inhibitors are interesting anti-cancer agents with a novel mechanism of action. […] In subsequent patient cohorts the dose was escalated from 0.3 to 1.5 mg m-2 day-'. Pharmacokinetics analysis was performed on days 1 and 4 of the first course using a validated high- performance liquid chromatographic assay and non-compartmental methods. […] Its further development was stopped because of unpredictable and severe myelosuppression, gastrointestinal toxicity and haemorrhagic cystitis. In the late 1980s two discoveries brought about a renewal of interest in CPT; firstly, topoisomerase I was identified as the single cellular target of CPT (Hsiang et al., 1985; Hsiang and Liu, 1988) and, secondly, an overexpression of topoisomerase I was found in various tumour cell lines but not in normal tissues (Giovanella et al., 1989; Hirabayaski et al., 1992; Potmesil et al., 1988). Topoisomerase I is a nuclear enzyme that resolves topological problems of the torsionally strained (supercoiled) DNA (Slichenmyer et al., 1993). This is achieved by forming a covalent adduct between topoisome- rase I and the DNA, termed the cleavable complex. This catalytic intermediate creates single-strand DNA breaks, allowing the DNA molecule to rotate around the intact DNA strand at the cleavage site, leading to a relaxation of the DNA molecule and in this way replication, transcription and other DNA functions can proceed. These enzyme- bridged breaks are then resealed by topoisomerase I. CPT stabilises the cleavable complexes, thereby preventing resealing of single-strand DNA breaks in the presence of the drug (Covey et al., 1989; D'Arpa and Liu, 1989; Eng et al., 1988). Cytotoxicity is specific to the S-phase of the cell cycle because the double-strand breaks that occur during this phase are more difficult to repair in the presence of the drug (Horwitz and Horwitz, 1973). […] Other eligibility criteria included: (1) age>, 18 years; (2) an Eastern Cooperative Oncology Group (ECOG) performance status <2; (3) a predicted life expectancy of at least 3 months; (4) no previous anti-cancer therapy for at least 3 weeks (6 weeks for previous nitro- soureas or mitomycin C); (5) adequate haemato- poietic (WBC) 3 x 109 -', ANC > 1.5 x 109 1-' and platelets 100 x 10 1- 1), hepatic (bilirubin within normal limits, AST, ALT and/or alkaline phosphatase < 2.0 x normal), and renal (serum creatinine < 130 imol 1-') functions. All patients gave written informed consent.

[2] = animals, intravenous route; cited from earlier work
[3] = 0.3 mg m-2 day-1, 3 patients, 10 evaluable courses
[4] = 0.6 mg m-2 day-1, 3 patients, 18 evaluable courses
[5] = 0.9 mg m-2 day-1, 3 patients, 9 evaluable courses
[6] = 1.2 mg m-2 day-1, 6 patients, 15 evaluable courses
[7] = 1.2 mg m-2 day-1, n=6, Table III
[8] = 1.2 mg m-2 day-1, n=7, Table III
[9] = 1.5 mg m-2 day-1, 6 patients, 15 evaluable courses
[10] = 1.5 mg m-2 day-1, n=7, Table III
[11] = 1.5 mg m-2 day-1, n=13, Table III

CC[C@@]1(O)C(=O)OCc2c1cc1n(c2=O)Cc2c-1nc1cc3c(cc1c2CN1CCN(C)CC1)OCCO3 [GI147211, [7 - (methylpiperazinomethylene) - 10,11 - ethylene-dioxy-20(S)] camptothecin dihydrochloride]
Leucocytes CTC grade 1, number of courses [1, 3]: 0
Leucocytes CTC grade 2, number of courses [1, 3]: 0
Leucocytes CTC grade 3, number of courses [1, 3]: 0
Leucocytes CTC grade 4, number of courses [1, 3]: 0
Neutrophils CTC grade 1, number of courses [1, 3]: 0
Neutrophils CTC grade 2, number of courses [1, 3]: 0
Neutrophils CTC grade 3, number of courses [1, 3]: 0
Neutrophils CTC grade 4, number of courses [1, 3]: 0
Platelets CTC grade 1, number of courses [1, 3]: 0
Platelets CTC grade 2, number of courses [1, 3]: 0
Platelets CTC grade 3, number of courses [1, 3]: 0
Platelets CTC grade 4, number of courses [1, 3]: 0
Leucocytes CTC grade 1, number of courses [1, 4]: 8
Leucocytes CTC grade 2, number of courses [1, 4]: 0
Leucocytes CTC grade 3, number of courses [1, 4]: 0
Leucocytes CTC grade 4, number of courses [1, 4]: 0
Neutrophils CTC grade 1, number of courses [1, 4]: 4
Neutrophils CTC grade 2, number of courses [1, 4]: 1
Neutrophils CTC grade 3, number of courses [1, 4]: 0
Neutrophils CTC grade 4, number of courses [1, 4]: 0
Platelets CTC grade 1, number of courses [1, 4]: 1
Platelets CTC grade 2, number of courses [1, 4]: 0
Platelets CTC grade 3, number of courses [1, 4]: 0
Platelets CTC grade 4, number of courses [1, 4]: 0
Leucocytes CTC grade 1, number of courses [1, 5]: 3
Leucocytes CTC grade 2, number of courses [1, 5]: 1
Leucocytes CTC grade 3, number of courses [1, 5]: 1
Leucocytes CTC grade 4, number of courses [1, 5]: 0
Neutrophils CTC grade 1, number of courses [1, 5]: 0
Neutrophils CTC grade 2, number of courses [1, 5]: 4
Neutrophils CTC grade 3, number of courses [1, 5]: 1
Neutrophils CTC grade 4, number of courses [1, 5]: 0
Platelets CTC grade 1, number of courses [1, 5]: 4
Platelets CTC grade 2, number of courses [1, 5]: 2
Platelets CTC grade 3, number of courses [1, 5]: 1
Platelets CTC grade 4, number of courses [1, 5]: 0
ANC nadir, range ([1]; 1.2 mg m-2 day-1): 0.08-5.6 x 109 l-1
grade 3-4 neutropenia, courses ([1]; 1.2 mg m-2 day-1): 7/15
grade 3-4 thrombocytopenia, courses ([1]; 1.2 mg m-2 day-1): 6/15
median ANC nadir ([1]; 1.2 mg m-2 day-1): 1.29e+09 L⁻¹
median platelet nadir ([1]; 1.2 mg m-2 day-1): 7.4e+10 L⁻¹
platelet nadir, range ([1]; 1.2 mg m-2 day-1): 33-379 x 109 l-1
subsequent courses postponed owing to prolonged myelosuppression ([1]; 1.2 mg m-2 day-1): 6/15
Leucocytes CTC grade 1, number of courses [1, 6]: 1
Leucocytes CTC grade 2, number of courses [1, 6]: 1
Leucocytes CTC grade 3, number of courses [1, 6]: 4
Leucocytes CTC grade 4, number of courses [1, 6]: 2
Neutrophils CTC grade 1, number of courses [1, 6]: 2
Neutrophils CTC grade 2, number of courses [1, 6]: 2
Neutrophils CTC grade 3, number of courses [1, 6]: 1
Neutrophils CTC grade 4, number of courses [1, 6]: 6
Platelets CTC grade 1, number of courses [1, 6]: 0
Platelets CTC grade 2, number of courses [1, 6]: 1
Platelets CTC grade 3, number of courses [1, 6]: 6
Platelets CTC grade 4, number of courses [1, 6]: 0
Day nadir, thrombocytopenia (range) [1, 7]: 15 (10-19) day
Median day of occurrence of grade 3-4 thrombocytopenia (range) [1, 7]: 15 (15-15) day
Median number of days from grade 3-4 to recovery > grade 2 thrombocytopenia (range) [1, 7]: 7 (2-8) days
Day nadir, neutropenia (range) [1, 8]: 22 (13-22) day
Median day of occurrence of grade 3-4 neutropenia (range) [1, 8]: 15 (10-19) day
Median number of days from grade 3-4 to recovery > grade 2 neutropenia (range) [1, 8]: 10 (1_10) days
ANC nadir, range ([1]; 1.5 mg m-2 day-1): 0.01-1.7 x 109 l-1
grade 3-4 neutropenia, courses ([1]; 1.5 mg m-2 day-1): 13/15
grade 3-4 neutropenia, per cent of courses ([1]; 1.5 mg m-2 day-1): 86%
median ANC nadir ([1]; 1.5 mg m-2 day-1): 9e+07 L⁻¹
median platelet nadir ([1]; 1.5 mg m-2 day-1): 6.2e+10 L⁻¹
platelet nadir, range ([1]; 1.5 mg m-2 day-1): 10-116 x 109 l-1
thrombocytopenia complicated by gastrointestinal bleeding ([1]; 1.5 mg m-2 day-1): two
thrombocytopenia grade 3-4, courses ([1]; 1.5 mg m-2 day-1): 7/15
thrombocytopenia grade 3-4, per cent of courses ([1]; 1.5 mg m-2 day-1): 46%
treatment delay, courses ([1]; 1.5 mg m-2 day-1): 5 of the 15 courses
Leucocytes CTC grade 1, number of courses [1, 9]: 0
Leucocytes CTC grade 2, number of courses [1, 9]: 9
Leucocytes CTC grade 3, number of courses [1, 9]: 3
Leucocytes CTC grade 4, number of courses [1, 9]: 3
Neutrophils CTC grade 1, number of courses [1, 9]: 2
Neutrophils CTC grade 2, number of courses [1, 9]: 0
Neutrophils CTC grade 3, number of courses [1, 9]: 2
Neutrophils CTC grade 4, number of courses [1, 9]: 11
Platelets CTC grade 1, number of courses [1, 9]: 2
Platelets CTC grade 2, number of courses [1, 9]: 6
Platelets CTC grade 3, number of courses [1, 9]: 4
Platelets CTC grade 4, number of courses [1, 9]: 3
Day nadir, thrombocytopenia (range) [1, 10]: 15 (13 15) day
Median day of occurrence of grade 3-4 thrombocytopenia (range) [1, 10]: 15 (10-15) day
Median number of days from grade 3-4 to recovery > grade 2 thrombocytopenia (range) [1, 10]: 8 (5-12) days
Day nadir, neutropenia (range) [1, 11]: 15 (13 -22) day
Median day of occurrence of grade 3-4 neutropenia (range) [1, 11]: 10 (5-25) day
Median number of days from grade 3-4 to recovery > grade 2 neutropenia (range) [1, 11]: 11 (4-25) days
infectious complications ([1]; 1.5 mg m-2 day-1, two life-threatening septic): Three
maximal tolerated dose ([1]; 30 min i.v. infusion daily x 5, every 3 weeks): 1.2 mg m-2 day-1
severity of nausea and vomiting ([1]; CTC grade): never worse than grade 1-2
cumulative myelotoxicity ([1]; all dose levels): not observed
mild headache, courses ([1]; all dose levels): eight
mild headache, per cent of courses ([1]; all dose levels): 12%
nausea, per cent of given courses ([1]; all dose levels): 44%
other non-haematological toxicities ([1]; all dose levels): no diarrhoea, mucositis, liver or renal toxicity
vomiting, per cent of given courses ([1]; all dose levels): 22%
nausea, number of given courses ([1]; all dose levels, 67 courses): 30 courses
vomiting, number of given courses ([1]; all dose levels, 67 courses): 15 courses
dose-limiting toxicities ([1]; at 1.5 mg m-2 day-1): neutropenia and thrombocytopenia
myelotoxicity ([1]; first two dose levels (0.3, 0.6 mg m-2 day-1)): No myelotoxicity
alopecia grade 1 ([1]; highest two dose levels): three
anaemia ([1]; in vivo): occurred frequently but was never severe
recommended dose for phase II studies ([1]; x 5 every 3 weeks): 1.2 mg m-2
main and dose-limiting toxicity [2]: myelosuppression

Reference: article PMC2074382 (British Journal of Cancer, 1996)
